Results from ChEMBL document CHEMBL6114960, “Discovery of First-in-Class FXR and HSD17B13 Dual Modulator for the Treatment of Metabolic Dysfunction-Associated Fatty Liver Disease” (J Med Chem, 2025).

Columns and labels:
Bile acid receptor [1] = target: T1, Bile acid receptor (Homo sapiens, UniProt Q96RI1); experiment: Agonist activity at FXR-LBD (unknown origin) incubated for 3 hrs in presence of fluorescein-coactivator peptide by TR-FRET analysis
T1 sequence (Q96RI1 whole entry): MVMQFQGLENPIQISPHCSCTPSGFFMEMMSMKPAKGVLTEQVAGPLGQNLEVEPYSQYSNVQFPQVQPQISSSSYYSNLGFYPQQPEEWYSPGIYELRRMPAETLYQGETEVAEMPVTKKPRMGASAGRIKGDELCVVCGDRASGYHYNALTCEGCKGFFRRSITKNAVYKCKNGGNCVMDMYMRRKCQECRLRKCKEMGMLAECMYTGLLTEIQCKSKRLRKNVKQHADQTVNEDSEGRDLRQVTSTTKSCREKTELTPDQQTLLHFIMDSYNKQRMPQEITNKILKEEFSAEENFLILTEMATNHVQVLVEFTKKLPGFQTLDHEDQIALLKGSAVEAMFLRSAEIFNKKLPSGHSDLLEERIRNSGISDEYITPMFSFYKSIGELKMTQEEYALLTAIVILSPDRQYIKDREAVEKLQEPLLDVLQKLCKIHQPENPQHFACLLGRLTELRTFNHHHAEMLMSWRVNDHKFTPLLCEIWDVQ

Bile acid receptor [2] = target: T1, Bile acid receptor; experiment: Agonist activity at FXR (unknown origin) transfected in human HepG2 cells incubated for 24 hrs by luciferase assay; assay type: cell-based
[3] = target: T2, 17-beta-hydroxysteroid dehydrogenase 13 (Homo sapiens, UniProt Q7Z5P4)
T2 sequence (Q7Z5P4 whole entry): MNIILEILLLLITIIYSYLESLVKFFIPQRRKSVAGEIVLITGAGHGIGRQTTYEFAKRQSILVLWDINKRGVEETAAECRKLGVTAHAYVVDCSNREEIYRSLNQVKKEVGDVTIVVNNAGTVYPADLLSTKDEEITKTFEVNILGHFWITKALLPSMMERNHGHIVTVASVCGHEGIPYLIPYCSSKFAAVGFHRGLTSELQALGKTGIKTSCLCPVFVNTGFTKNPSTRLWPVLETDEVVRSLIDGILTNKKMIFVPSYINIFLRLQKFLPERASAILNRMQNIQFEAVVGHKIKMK
Description: Inhibition of HSD17B13 (unknown origin) using beta-estradiol and FAC-NAD+ as substrate incubated for 2 hrs by NAD(P)H-Glo detection reagent based luminescence assay

Bile acid receptor [4] = target: T1, Bile acid receptor; experiment: Agonist activity at FXR (unknown origin)
Mus musculus = experiment: Anti-MASH activity in western diet and CCl4 co-induced male C57BL/6 mouse model assessed as NAFLD activity score at 20 mg/kg, po administered with high fat diet and sugar water for 12 weeks with subsequent CCl4 administration three times a week and measured after 4 weeks of compound administration via gavage starting from 9th week (Rvb > 6); assay type: functional

| SMILES | EC50 (Bile acid receptor [1]) | EC50 (Bile acid receptor [2]) | other results |
| --- | --- | --- | --- |
| CC(C)NC(=O)c1ccc(-c2ccc(OCc3c(-c4c(Cl)cccc4Cl)noc3C3CC3)cc2)cc1 | 0.974 µM |  |  |
| Cc1cc(OCc2c(-c3c(Cl)cccc3Cl)noc2C2CC2)ccc1-c1ccc(C(=O)O)cc1 | 0.134 µM | 0.301 µM |  |
| CN(C)C(=O)c1ccc(-c2ccc(OCc3c(-c4c(Cl)cccc4Cl)noc3C3CC3)cc2)cc1 | 0.482 µM |  |  |
| O=C(O)c1cccc2nc(-c3ccc(OCc4c(-c5c(Cl)cccc5Cl)noc4C4CC4)cc3)cn12 | 0.121 µM | 0.186 µM | IC50 [3]: 0.85 µM |
| O=C(O)c1ccc(-c2ccc(OCc3c(-c4c(Cl)cccc4Cl)noc3C3CC3)cc2)nc1 | 0.129 µM | 0.329 µM |  |
| O=C(O)c1ccc(-c2ccc(OCc3c(-c4c(Cl)cccc4Cl)noc3C3CC3)c(F)c2)cc1 | 0.143 µM | 0.475 µM |  |
| CN(C)C(=O)c1cccc(-c2ccc(OCc3c(-c4c(Cl)cccc4Cl)noc3C3CC3)cc2)c1 | 0.209 µM | 0.493 µM |  |
| CC(C)c1onc(-c2ccccc2C(F)(F)F)c1COc1ccc(-c2ccc(C(=O)O)cc2)cc1 | 0.232 µM | 0.525 µM |  |
| O=C(O)c1ccc(-c2ccc(OCc3c(-c4c(Cl)cccc4Cl)noc3C3CC3)cc2)cc1Cl | 0.193 µM | 0.239 µM |  |
| O=C(O)C1=CC2NC(c3ccc(OCc4c(-c5c(Cl)cccc5Cl)noc4C4CC4)cc3)=NC2C=C1 (stereo unspecified) |  |  | IC50 [3]: 4.35 µM |
| O=C(NCC1CC1)c1cccc(-c2ccc(OCc3c(-c4c(Cl)cccc4Cl)noc3C3CC3)cc2)c1 | > 10 µM |  |  |
| CC(C)(C)NC(=O)c1cccc(-c2ccc(OCc3c(-c4c(Cl)cccc4Cl)noc3C3CC3)cc2)c1 | > 10 µM |  |  |
| O=C(O)c1c(F)cc(-c2ccc(OCc3c(-c4c(Cl)cccc4Cl)noc3C3CC3)cc2)cc1F | 0.531 µM |  |  |
| O=C(O)c1ccc(-c2ccc(OCc3c(-c4c(Cl)cccc4Cl)noc3C3CC3)cc2)c(C(F)(F)F)c1 | 0.119 µM | 0.288 µM |  |
| CNC(=O)c1ccc(-c2ccc(OCc3c(-c4c(Cl)cccc4Cl)noc3C3CC3)cc2)cc1 | 0.146 µM | 0.288 µM |  |
| O=C(O)c1ccc(-c2ccc(OCc3c(-c4c(Cl)cccc4Cl)noc3C3CC3)cc2)s1 | 0.271 µM | 0.491 µM |  |
| OCC1(c2cccc(-c3ccc(OCc4c(-c5c(Cl)cccc5Cl)noc4C4CC4)cc3)c2)CC1 | > 10 µM |  |  |
| O=C(O)c1ccc(-c2ccc(OCc3c(-c4c(Cl)cccc4Cl)noc3C3CC3)cc2)c(F)c1 | 0.114 µM | 0.282 µM |  |
| NC(=O)c1ccc(-c2ccc(OCc3c(-c4c(Cl)cccc4Cl)noc3C3CC3)cc2)cc1 | 0.145 µM | 0.372 µM |  |
| O=C(c1cccc(-c2ccc(OCc3c(-c4c(Cl)cccc4Cl)noc3C3CC3)cc2)c1)N1CCOCC1 | > 10 µM |  |  |
| Cc1cc(OCc2c(-c3c(Cl)cccc3Cl)noc2C2CC2)cc(C)c1-c1ccc(C(=O)O)cc1 | 0.085 µM | 0.261 µM |  |
| O=C(O)c1ccc(-c2ccc(OCc3c(-c4c(Cl)cccc4Cl)noc3C3CC3)cn2)cc1 | 0.697 µM |  |  |
| O=C(NC1CC1)c1cccc(-c2ccc(OCc3c(-c4c(Cl)cccc4Cl)noc3C3CC3)cc2)c1 | 0.579 µM |  |  |
| OCCOc1ccc(-c2ccc(OCc3c(-c4c(Cl)cccc4Cl)noc3C3CC3)cc2)cc1 | > 10 µM |  |  |
| O=C(O)c1ccnc(N2CC(O)(c3ccc(OCc4c(-c5c(Cl)cccc5Cl)noc4C4CC4)cc3Cl)C2)c1 [CILOFEXOR] |  |  | EC50 (Bile acid receptor [4]): 0.058 µM |
| CC[C@H]1[C@@H](O)[C@@H]2[C@H](CC[C@]3(C)[C@@H]([C@H](C)CCC(=O)O)CC[C@@H]23)[C@@]2(C)CC[C@@H](O)C[C@@H]12 [OBETICHOLIC ACID] |  |  | IC50 [3]: > 10 µM; Activity (Mus musculus): 3.5 |
